How the values were obtained:
Assay type in all cases: cell-based
E-selectin = experiment: TNF-α induced cell surface expression of E-selectin on HUVECs; conditions: Homo sapiens, HUVEC; TNF-α (1 ng/mL) stimulated HUVECs, 6 hours, n=2
Experimental: The assay was designed as in reference, Transplantation, 1997, 63(5), 759-764, the disclosure of which is incorporated herein by reference for the teaching of the assay.
Human umbilical vein endothelial cells (HUVECs) were obtained from Cascade Biologics (Oregon-USA). Cells were cultured in M-200 medium (Cascade Biologics) supplemented with low serum growth supplements (LSGS) (Cascade Biologics), penicillin-G (100 U/mL), streptomycin (100 μg/mL) and amphotericin B (50 ng/mL) (GIBCO). […] After TNF-α stimulation (1 ng/mL) (R&D Systems (Minneapolis, Minn.)) for 4 hours at 37° C. in an atmosphere of 5% CO2, supernatants were harvested and assayed for the expression of ICAM-1 (intercellular cell adhesion molecules), whereas the expressions of VCAM-1 (vascular cell adhesion molecules) and E-selectin were evaluated after 6 hours of stimulation. […] To quantitatively measure the amount of cell surface expressions of ICAM-1, VCAM-1 and E-selectin, ELISA assay was performed using anti-ICAM-1 (clone BBIG-I1), anti-VCAM-1 (clone BBIG-V1), anti-E-selectin (clone BBIG-E4) antibodies, isotype control mouse IgG1 (clone 11711.11) and the secondary antibody (anti-mouse IgG-HRP antibody) which were procured from R&D Systems (Minneapolis, Minn., USA). […]

IL-8 [1] = experiment: Spontaneous IL-8 release from synovial cells of RA patients; conditions: Homo sapiens, Synovial cell, freshly isolated synovial cells from RA patients, 16 hours
Experimental: Cytokine production in synovial cells obtained from rheumatoid arthritis patients undergoing knee replacement surgery, was measured as per the method described in reference, Lancet, 1989, 29, 244-247, the disclosure of which is incorporated herein by reference for the teaching of the assay. The synovial membrane tissue was digested by incubating at 37° C. for 3 hours in an atmosphere of 5% CO2, in Roswell Park Memorial Institute (RPMI) medium containing penicillin-G (100 U/mL), streptomycin (100 μg/mL), amphotericin B (50 ng/mL) (GIBCO), 1.33 mg/mL collagenase Type I (Worthington Biochemical Corporation, New Jersey, USA), 0.5 μg/mL DNAse Type I (SIGMA) and 8.33 U/mL heparin (Biological E. Limited, India). The digested tissue was then filtered through a membrane (mesh size 70 micron) (SIGMA), the cells were washed 3 times and suspended in complete medium (RPMI supplemented with 5% FCS and 5% human serum). The cell concentration was adjusted to 1×10^6 cells/mL. The viability as determined by trypan blue dye exclusion was uniform Ly≧98%. The cell suspension (100 μL) was added to the wells of a 96-well culture plate. Following cell plating, 100 μL of the culture medium and 1 μL of various concentrations of the compound of example 3 (final concentration 0.001, 0.003, 0.01, 0.03, 0.1, 0.3, 1 and 3 μM) dissolved in DMSO (dimethylsulfoxide, Sigma, Mo., USA) were added to the cells. […]

IL-8 [2] = experiment: LPS-induced IL-8 release from hPBMCs (ELISA); conditions: Homo sapiens
Experimental: Cytokine production by lipopolysaccharides (LPS) in hPBMCs (human peripheral blood mononuclear cells) was measured as in reference, Physiol. Res. 2003, 52, 593-598, the disclosure of which is incorporated by reference for the teaching of the assay. Blood was collected from healthy donors into Potassium EDTA vacutainer tubes (BID vacutainer). The PBMC were isolated using gradient centrifugation in Histopaque-1077 solution (Sigma). Isolated PBMC were suspended in RPMI 1640 (Rosewell Park Memorial Institute) culture medium (Sigma-Aldrich Fine Chemicals, USA) containing 10% fetal bovine serum (FBS) (JRH, USA), 100 U/mL penicillin (Sigma Chemical Co. St Louis, Mo., USA) and 100 μg/mL streptomycin (Sigma Chemical Co. St Louis, Mo.). The cell concentration was adjusted to 1×10^6 cells/mL. The viability as determined by trypan blue dye exclusion was uniform Ly≧98%. The cell suspension (100 μL) was added to the wells of a 96-well culture plate. Following cell plating, 79 μL of the culture medium and 1 μL of various concentrations of test compounds (compounds of formula 1) (final concentration 0.001, 0.003, 0.005, 0.01, 0.025, 0.03, 0.05, 0.1, 0.25, 0.3 and 1 μM) dissolved in DMSO (dimethyl sulfoxide, Sigma, Mo., USA) were added to the cells. The final concentration of DMSO was adjusted to 0.5%. The vehicle (0.5% DMSO) was used as control. […]

IC50 (E-selectin): 650 nM
IC50 (IL-8 [1]): 3500 nM
IC50 (IL-8 [2]): 1300 nM
Structure (SMILES): CN1CC[C@@H](c2c(O)cc(O)c3c(=O)cc(-c4ccc(C(F)(F)F)cc4Cl)oc23)[C@@H]1CO.Cl [Compound of example 3, (+)-trans-2-(2-Chloro-4-trifluoromethyl-phenyl)-5,7-dihydroxy-8-(2-hydroxymethyl-1-methyl-pyrrolidin-3-yl)-chromen-4-one hydrochloride]

Reference: patent US8906953B2, “Pyrrolidine substitute flavones for the treatment of inflammatory disorders” (Piramal Enterprises Limited, priority 2010, dated 2014)
